Results: BindingDB's records for doi:10.7270/Q2TX3CTT (Broad Institute, 2010)

Target: Glycogen synthase kinase-3 beta (Homo sapiens, UniProt P49841)
Experiment: concentration-response blocking of human GSK3B – biochemical, luminescence, cell-free homogeneous, retest, dose response (AID 434954)

Sequence of Glycogen synthase kinase-3 beta (P49841 whole entry): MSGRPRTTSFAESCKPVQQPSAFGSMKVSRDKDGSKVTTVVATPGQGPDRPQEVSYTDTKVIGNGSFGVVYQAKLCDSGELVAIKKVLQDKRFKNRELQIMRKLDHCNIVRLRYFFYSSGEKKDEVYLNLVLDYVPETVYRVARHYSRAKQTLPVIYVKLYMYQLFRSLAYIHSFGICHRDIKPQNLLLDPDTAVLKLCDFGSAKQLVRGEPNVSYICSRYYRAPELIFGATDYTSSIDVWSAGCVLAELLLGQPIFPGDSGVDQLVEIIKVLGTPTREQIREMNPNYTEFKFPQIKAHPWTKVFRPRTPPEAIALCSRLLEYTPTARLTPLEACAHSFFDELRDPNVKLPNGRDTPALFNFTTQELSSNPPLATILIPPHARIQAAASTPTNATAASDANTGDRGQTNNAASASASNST

Row | Compound | EC50
1 | Cc1cc2c(Nc3ccc(O)cc3)ncnc2s1 [4-(6-Methyl-thieno[2,3-d]pyrimidin-4-ylamino)-phenol] | > 300 µM
2 | Cc1cc(NC(=O)CSc2nc(O)c(C#N)c(-c3ccccc3)n2)no1 [2-[(5-cyano-4-oxidanylidene-6-phenyl-1H-pyrimidin-2-yl)sulfanyl]-N-(5-methyl-1,2-oxazol-3-yl)ethanamide] | > 300 µM
3 | CC(=O)Nc1cccc2c1C(=O)NC2=O [N-(1,3-dioxoisoindol-4-yl)acetamide] | 31.7 µM
4 | Cc1c(Cl)cccc1Nc1ccccc1C(=O)O | > 300 µM
5 | CCOC(=O)c1cnc2c(C)cccc2c1Nc1ccc(N2CCOCC2)cc1 [ethyl 8-methyl-4-[(4-morpholin-4-ylphenyl)amino]quinoline-3-carboxylate] | > 300 µM
6 | CCN(CC)CCN1C(=O)C(=O)C(C(=O)c2ccc(S(=O)(=O)N3CCOCC3)cc2)C1c1ccccc1 (stereo not given) [(4E)-1-[2-(diethylamino)ethyl]-4-[hydroxy-[4-(4-morpholinylsulfonyl)phenyl]methylidene]-5-phenylpyrrolidine-2,3-dione] | > 300 µM
7 | COc1cccc(C(=O)NCCCNC(=O)c2cccc(OC)c2)c1 [3-methoxy-N-[3-[[(3-methoxyphenyl)-oxomethyl]amino]propyl]benzamide] | > 300 µM
8 | CNC(=O)NC(=O)CSc1nc(-c2cccs2)c(C#N)c(=O)[nH]1 [2-[(5-cyano-4-oxo-6-thiophen-2-yl-1H-pyrimidin-2-yl)thio]-N-(methylcarbamoyl)acetamide] | 2.05 µM
9 | O=C1CC(O)(C(F)(F)F)Oc2c1ccc1ccccc21 (stereo not given) [2-oxidanyl-2-(trifluoromethyl)-3H-benzo[h]chromen-4-one] | > 300 µM
10 | CCOC(=O)c1nnn(-c2nonc2N)c1-c1cccs1 [1-(4-amino-1,2,5-oxadiazol-3-yl)-5-thiophen-2-yl-4-triazolecarboxylic acid ethyl ester] | 11.7 µM
11 | COc1cc(C(=O)OCC(=O)NC(N)=O)cc(CN2C(=O)c3ccccc3C2=O)c1OC | > 300 µM
12 | CCC(=O)Nc1ccc(Nc2nc(C)c([N+](=O)[O-])c(Nc3ccc(NC(=O)CC)cc3)n2)cc1 [N,N'-[(6-methyl-5-nitro-2,4-pyrimidinediyl)bis(imino-4,1-phenylene)]dipropanamide] | > 300 µM
13 | NS(=O)(=O)c1ccc(N2CCCCCC2)c([N+](=O)[O-])c1 [4-(azepan-1-yl)-3-nitrobenzenesulfonamide] | > 300 µM
14 | COc1cccc(-n2c(Cn3nc(C(F)F)cc3C(F)F)n[nH]c2=S)c1 [3-[[3,5-bis(difluoromethyl)-1-pyrazolyl]methyl]-4-(3-methoxyphenyl)-1H-1,2,4-triazole-5-thione] | > 300 µM
15 | Cc1sc2ncnc(N3CCCCC3C)c2c1C (stereo not given) | > 300 µM
16 | Cn1nc(-c2ccccn2)nc2c(=O)n(C)c(=O)nc1-2 [1,6-dimethyl-3-(2-pyridinyl)pyrimido[5,4-e][1,2,4]triazine-5,7(1H,6H)-dione] | 46.2 µM
17 | CCN(CC)CCNC(=O)C(=O)Nc1ccc2c(c1)N(S(=O)(=O)c1cccs1)CCC2 [N-[2-(diethylamino)ethyl]-N'-(1-thiophen-2-ylsulfonyl-3,4-dihydro-2H-quinolin-7-yl)oxamide] | > 300 µM
18 | CN1CCN(c2ccccc2NC(=O)c2ccc(Br)o2)CC1 [5-bromanyl-N-[2-(4-methylpiperazin-1-yl)phenyl]furan-2-carboxamide] | 19.3 µM
19 | NC(=S)c1cn(C2OC(CO)C(O)C2O)c2ncnc(N)c12 (stereo not given) [4-amino-7-[3,4-dihydroxy-5-(hydroxymethyl)oxolan-2-yl]pyrrolo[2,3-d]pyrimidine-5-carbothioamide] | 12 µM
20 | CN1C(=Cc2ccc(F)cc2)C(=O)N=C1N [(5Z)-2-azanyl-5-[(4-fluorophenyl)methylidene]-1-methyl-imidazol-4-one] | > 300 µM
21 | O=C1NC(c2ccncc2)Nc2sc3c(c21)CCCC3 (stereo not given) | > 300 µM
22 | Cc1ccc(NC(=O)c2ccc(C)c(S(=O)(=O)N3CCCCC3)c2)nc1 [MLS001078236] | > 300 µM

Row | Compound | EC50
23 | CC(O)c1cccc(NC2=CC(=O)CC(C)(C)C2)c1 (stereo not given) | > 300 µM
24 | Cc1ccccc1-c1nnc(SCCOc2ccc3c(C)cc(=O)oc3c2)o1 | > 300 µM
25 | Cc1cccc(NC(=O)C(C)n2cc([N+](=O)[O-])cn2)n1 (stereo not given) [N-(6-methylpyridin-2-yl)-2-(4-nitro-1H-pyrazol-1-yl)propanamide] | > 300 µM
26 | O=C(Nc1ccccn1)C(=O)Nc1ccccn1 [N,N'-dipyridin-2-ylethanediamide] | > 300 µM
27 | Nc1ncnc(NC2CCS(=O)(=O)C2)c1[N+](=O)[O-] (stereo not given) [4-N-(1,1-dioxothiolan-3-yl)-5-nitropyrimidine-4,6-diamine] | > 300 µM
28 | O=C(CC1NCCNC1=O)Nc1cc(Cl)cc(Cl)c1 (stereo not given) [N-(3,5-dichlorophenyl)-2-(3-oxopiperazin-2-yl)acetamide] | > 300 µM
29 | O=C(NCc1ccccc1)c1ccc2nccnc2c1 [N-(phenylmethyl)-6-quinoxalinecarboxamide] | > 300 µM
30 | COc1ccc(-c2c(N)nnc3c2[nH]c2ccccc23)cc1OC | > 300 µM
31 | Fc1ccccc1CN=Nc1ncnc2nc[nH]c12 | 11.2 µM
32 | CC1CCCCN1c1cc(C#N)c(C#N)cc1[N+](=O)[O-] (stereo not given) [4-(2-methyl-1-piperidinyl)-5-nitrophthalonitrile] | > 300 µM
33 | O=C(COc1ccccc1[N+](=O)[O-])NN=C/C=C/c1ccco1 [N-[[(E)-3-(furan-2-yl)prop-2-enylidene]amino]-2-(2-nitrophenoxy)acetamide] | > 300 µM
34 | CCOC(=O)C1C(C)=Nc2ncnn2C1c1cccnc1 (stereo not given) | > 300 µM
35 | O=C(O)c1ccccc1C(=O)Nc1nccs1 [2-(1,3-thiazol-2-ylcarbamoyl)benzoic acid] | > 300 µM
36 | Nc1nc(Nc2ccccc2)sc1C(=O)c1ccccc1 [(4-azanyl-2-phenylazanyl-1,3-thiazol-5-yl)-phenyl-methanone] | 0.171 µM
37 | c1ccc(CCCNCC2COc3ccccc3O2)cc1 (stereo not given) | > 300 µM
38 | Cc1cc(NC(=O)CCC(=O)N(c2cccnc2)C(C(=O)NC2CCCC2)c2ccccc2F)no1 (stereo not given) [N'-[2-(cyclopentylamino)-1-(2-fluorophenyl)-2-oxoethyl]-N-(5-methyl-1,2-oxazol-3-yl)-N'-pyridin-3-ylbutanediamide] | > 300 µM
39 | COc1ccc2c(c1)-c1c(sn(-c3ccccc3)c1=S)C(C)(C)N2 | > 300 µM
40 | O=c1cc(-c2ccccc2Cl)oc2ccc([N+](=O)[O-])c(O)c12 [2-(2-chlorophenyl)-5-hydroxy-6-nitrochromen-4-one] | > 300 µM
41 | Cc1oc2c(CN(C)C)c(O)ccc2c(=O)c1-c1cscn1 | > 300 µM
42 | NNc1nccc(Nc2ccccc2C(=O)O)n1 [2-[(2-hydrazinyl-4-pyrimidinyl)amino]benzoic acid] | 2.92 µM
43 | CC1Cc2cc(S(=O)(=O)N3CCN(c4ccccc4)CC3)ccc2N1C(=O)C1CC1 (stereo not given) | > 300 µM

Continued, values first:

Row | EC50 | Compound
44 | 16.9 µM | O=C1Nc2cc(C(=O)N3CCC(N4CCCCC4)CC3)ccc2S/C1=C\c1ccccc1 [SMR000635251]
45 | > 300 µM | CCc1nnc(NC(=O)c2cc(-c3ccccc3)nn2-c2ccccc2)s1 [SMR000152662]
46 | 2.58 µM | O=c1cc(-c2ccccc2Cl)oc2c([N+](=O)[O-])c(O)cc(O)c12 [MLS000518336]
47 | 221 µM | Cn1c(SCc2nnc(-c3ccc(F)cc3)o2)nnc1C1COc2ccccc2O1 (stereo not given) [MLS000098636]
48 | > 300 µM | FC(F)(F)COc1ccc(-n2ccnc2)nn1 [SMR000307161]
49 | 2.33 µM | Nc1nc(NCC2CCCO2)nc(Nc2ccccc2F)c1[N+](=O)[O-] (stereo not given) [MLS000769541]
50 | 4.64 µM | CCOC(=O)C1C(C)=Nc2ncnn2C1c1c[nH]c2ccccc12 (stereo not given) [MLS000089006]
51 | > 300 µM | CCn1c(S)nnc1-c1ccc([N+](=O)[O-])cc1 [SMR000176027]
52 | > 300 µM | COc1ccc(-c2nn(-c3ccccc3)cc2CO)cc1OC [MLS000110763]
53 | > 300 µM | CCOc1ccccc1NC(=O)c1nnn(-c2ccc3c(c2)OCCO3)c1N [MLS001221013]
54 | 25.4 µM | CC(=NNC(=O)c1nnn(-c2nonc2N)c1CN1CCC(C)CC1)c1cccc(Br)c1 [MLS001075097]
55 | 19.1 µM | O=C1N=c2cc(Cl)ccc2=C1NNc1ccc(C(=O)O)cc1 [MLS000759696]
56 | > 300 µM | Cc1cc(CNC(=O)c2cc(COc3c(F)cccc3F)on2)nn1C [MLS000734261]
57 | > 300 µM | CCc1ccc(C2NC(=S)N=C3CC(C)(C)CC(=O)C32)cc1 (stereo not given) [MLS000720309]
58 | > 300 µM | CC1(C)CC(CCNC(=O)CCl)(c2ccccc2)CCO1 (stereo not given) [MLS000779552]
59 | 79.7 µM | Cc1ccc(Nc2nc(N)c([N+](=O)[O-])c(NCCO)n2)cc1 [MLS000333433]

Row | EC50 | Compound
60 | > 300 µM | COc1ccc2cc(C(N)=O)c(=NNC(=O)c3ccco3)oc2c1 [SMR000236446]
61 | > 300 µM | COc1ccccc1-c1c(C(F)(F)F)oc2c(CN(C)C)c(O)ccc2c1=O [MLS001206868]
62 | 71.9 µM | Nc1nc(NCc2ccccc2)nc(NCCO)c1[N+](=O)[O-] [MLS000332798]
63 | > 300 µM | O=C(CSc1nnc(-c2ccncc2)n1-c1ccc(F)cc1)NC(=O)NCc1ccco1 [SMR000065428]
64 | 4.25 µM | Nc1nc(NCCCN2CCOCC2)nc(Nc2cccc(Cl)c2)c1[N+](=O)[O-] [MLS000769815]
65 | > 300 µM | CSCCC(C(=O)NCc1cccs1)N1C(=O)c2ccccc2C1=O (stereo not given) [SMR000150898]
66 | > 300 µM | CCc1nnc(NC(=O)c2cccc(OC)c2)s1 [MLS000104553]
67 | 5.41 µM | COC1=CC(CN=Nc2ccc([N+](=O)[O-])cn2)C=C(OC)C1=O [MLS001173549]
68 | > 300 µM | O=C1NC(=NNc2ccccc2)SC1=Cc1ccccc1 [SMR000174572]
69 | > 300 µM | Cc1cc(C)c(C)c(S(=O)(=O)Nc2ccccc2C(=O)NCCCn2ccnc2)c1C [MLS000055504]
70 | > 300 µM | O=C(CCCC1=Nc2ccccc2S(=O)(=O)N1)Nc1ccccc1 [MLS001028511]
71 | > 300 µM | CN(C)c1nc(-c2cccnc2)nc(-c2ccccc2)c1C#N [SMR000549421]
72 | 45.7 µM | COC(=O)c1nnn(-c2nonc2N)c1CSc1nnc(C)s1 [MLS000728193]
73 | 30.2 µM | CSc1nc(NCc2ccco2)c2c3c(sc2n1)CN(C)CC3 [MLS000082597]
74 | > 300 µM | O=C(Nc1ccnc(-c2cccnc2)n1)c1ccc(Cl)c(Cl)c1 [MLS000327684]
75 | 51.5 µM | CCOC(=O)C1=C(C)NC(=O)C1=CNc1ccccc1 [SMR000168580]
